Measured values taken from patent publication US20220251044A1, “CRYSTAL FORM OF HYPOXIA-INDUCIBLE FACTOR-PROLYL HYDROXYLASE INHIBITOR” (CRYSTAL PHARMACEUTICAL (SUZHOU) CO., LTD., priority 2019, published 2022).
“Also recorded” adds a separate entry of the source.

How the values were obtained:
Type in all cases: physicochemical
[1] = Intrinsic dissolution (IDR); settings: for IDR: slope of data within 5-120 minutes
Procedure: The parameters for intrinsic dissolution tests in the present disclosure are as follows:
Approximately 100 mg of Form CSI or WO2014014835 Form A was added into the cavity of the die, and then compressed at 10 kN and held for 0.5 minute to obtain a tablet having a surface area of 0.5 cm^2. The die with the tablet still embedded was put into a dissolution apparatus to test the intrinsic dissolution. The slope (in μg/min) of the regression line was calculated according to the data within 5-120 minutes. IDR (in μg/min/cm^2) was further calculated according to the slope.

[2] = Kinetic solubility in SGF, FaSSIF, FeSSIF and water
From the text: The parameters for kinetic solubility tests of the present disclosure are as follows:
When solubility test is used to predict the in vivo performance of a drug, it is critical to simulate in vivo conditions as closely as possible. For oral medication, Simulated Gastric Fluid (SGF), Fasted-State Simulated Intestinal Fluid (FaSSIF), Fed-State Simulated Intestinal Fluid (FeSSIF) can be used to simulate the condition in vivo and predict the effects of feeding, thus solubility in such mediums is closer to that in vivo.
20 mg of Form CSI and 20 mg of WO2014014835 Form A were suspended into 4.0 mL of SGF, 4.0 mL of FaSSIF, 4.0 mL of FeSSIF and 4.0 mL of water to get saturated solutions. After equilibrated for 1 h, 4 h, 8 h and 24 h, the concentrations (μg/mL) of Compound I of the saturated solutions were measured by UPLC.

[3] = Crystalline form stability in the formulation process (XRPD); settings: capsule formulation of Table 17, process of Table 18
From the text: Form CSI of the present disclosure and WO2014014835 Form A were made into capsules using the formulation in Table 17 and the preparation process in Table 18. The XRPD patterns were collected before and after the formulation process. […] [table] [table]

[4] = Stability of Form CSI on storage (XRPD form, chemical purity)
Procedure: The parameters for purity tests of the present disclosure are as follows: [table] Approximately 5 mg of solid samples of Form CSI were stored under different conditions of 25° C./60% RH, 40° C./75% RH and 60° C./75% RH. Chemical purity and crystalline form were checked by HPLC and XRPD, respectively.

[5] = Compressibility (tablet hardness, tensile strength); settings: 80 mg, compressed at 10 kN
Procedure: ENERPAC manual tablet press was used for compression. 80 mg of Form CSI and WO2014014835 Form A were weighed and added into the dies of a φ6 mm round tooling, compressed at 10 kN, then stored at room temperature for 24 h until complete elastic recovery. Hardness (H) was tested with an intelligent tablet hardness tester. Diameter (D) and thickness (L) were tested with a caliper. Tensile strength of the powder was calculated with the following formula: T=2H/πDL*9.8. Under a certain force, the greater the tensile strength, the better the compressibility.

[6] = Pressure stability on tableting (XRPD)
From the text: Certain amount of Form CSI was compressed into tablets under different pressures with suitable tableting die. Crystalline forms before and after tableting were checked by XRPD.

[7] = Hygroscopicity by DVS
Procedure: Dynamic Vapor Sorption (DVS) was measured via an SMS (Surface Measurement Systems Ltd.) intrinsic DVS instrument. Its control software is DVS-Intrinsic control software. Typical parameters for DVS test are as follows: Temperature: 25° C. Gas and flow rate: N2, 200 mL/min dm/dt: 0.002%/min RH range: 0% RH to 95% RH DVS was applied to test the hygroscopicity of Form CSI and WO2014014835 Form A with about 10 mg of samples. The weight gains at each relative humidity were recorded in a cycle of 0-95%-0 RH. XRPD test was applied before and after DVS. Description and definition of hygroscopicity (general notice 9103 drug hygroscopicity test guidelines in 2015 edition of Chinese Pharmacopoeia, test at 25° C.±1° C., 80% RH. The definition of hygroscopicity in the 9th European Pharmacopoeia 5.11 is similar to the Chinese Pharmacopoeia.).

[8] = Physical stability on grinding (XRPD); settings: ground manually for 5 min in a mortar
Procedure: Form CSI and WO2014014835 Form A was ground manually for 5 min in a mortar.

[9] = 25° C./60% RH, sealed, 3 months
[10] = 40° C./75% RH, sealed, 3 months

SMILES: Cc1nc(C(=O)NCC(=O)O)c(O)c2ccc(Oc3ccccc3)cc12 [Form CSI, [(4-hydroxy-1-methyl-7-phenoxy-isoquinoline-3-carbonyl)-amino]-acetic acid]
- Increase of dissolution rate compared with Form A ([1]; pH 4.5 PBS): 41%
- Cumulative dissolution ([1]; pH4.5 PBS, 5 min, 37° C., 0.5 cm^2 tablet): 36.8 µg
- Cumulative dissolution ([1]; pH4.5 PBS, 10 min): 35.6 µg
- Cumulative dissolution ([1]; pH4.5 PBS, 15 min): 39.8 µg
- Cumulative dissolution ([1]; pH4.5 PBS, 20 min): 50.0 µg
- Cumulative dissolution ([1]; pH4.5 PBS, 25 min): 50.4 µg
- Cumulative dissolution ([1]; pH4.5 PBS, 30 min): 56.0 µg
- Cumulative dissolution ([1]; pH4.5 PBS, 45 min): 70.7 µg
- Cumulative dissolution ([1]; pH4.5 PBS, 60 min): 83.0 µg
- Cumulative dissolution ([1]; pH4.5 PBS, 90 min): 114.0 µg
- Cumulative dissolution ([1]; pH4.5 PBS, 120 min): 142.3 µg
- IDR ([1]; pH4.5 PBS): 1.8928 μg/min/cm^2
- Cumulative dissolution ([1]; pH6.8 PBS, 5 min, 37° C., 0.5 cm^2 tablet): 440.4 µg
- Cumulative dissolution ([1]; pH6.8 PBS, 10 min): 916.0 µg
- Cumulative dissolution ([1]; pH6.8 PBS, 15 min): 1345.9 µg
- Cumulative dissolution ([1]; pH6.8 PBS, 20 min): 1758.2 µg
- Cumulative dissolution ([1]; pH6.8 PBS, 25 min): 2152.9 µg
- Cumulative dissolution ([1]; pH6.8 PBS, 30 min): 2521.4 µg
- Cumulative dissolution ([1]; pH6.8 PBS, 45 min): 3392.2 µg
- Cumulative dissolution ([1]; pH6.8 PBS, 60 min): 4309.7 µg
- Cumulative dissolution ([1]; pH6.8 PBS, 90 min): 5967.2 µg
- Cumulative dissolution ([1]; pH6.8 PBS, 120 min): 7448.5 µg
- IDR ([1]; pH6.8 PBS): 120.3256 μg/min/cm^2
- Kinetic solubility (concentration of Compound I in saturated solution) ([2]; FaSSIF, 1 hour): 617.0 µg/mL
- Kinetic solubility (concentration of Compound I in saturated solution) ([2]; FaSSIF, 4 hours): 934.6 µg/mL
- Kinetic solubility (concentration of Compound I in saturated solution) ([2]; FaSSIF, 8 hours): 1043.5 µg/mL
- Kinetic solubility (concentration of Compound I in saturated solution) ([2]; FaSSIF, 24 hours): 1109.6 µg/mL
- Kinetic solubility (concentration of Compound I in saturated solution) ([2]; FeSSIF, 1 hour): 180.4 µg/mL
- Kinetic solubility (concentration of Compound I in saturated solution) ([2]; FeSSIF, 4 hours): 270.3 µg/mL
- Kinetic solubility (concentration of Compound I in saturated solution) ([2]; FeSSIF, 8 hours): 295.3 µg/mL
- Kinetic solubility (concentration of Compound I in saturated solution) ([2]; FeSSIF, 24 hours): 314.4 µg/mL
- Kinetic solubility (concentration of Compound I in saturated solution) ([2]; SGF, 1 hour): 22.7 µg/mL
- Kinetic solubility (concentration of Compound I in saturated solution) ([2]; SGF, 4 hours): 24.0 µg/mL
- Kinetic solubility (concentration of Compound I in saturated solution) ([2]; SGF, 8 hours): 24.2 µg/mL
- Kinetic solubility (concentration of Compound I in saturated solution) ([2]; SGF, 24 hours): 24.0 µg/mL
- Kinetic solubility (concentration of Compound I in saturated solution) ([2]; water, 1 hour): 18.2 µg/mL
- Kinetic solubility (concentration of Compound I in saturated solution) ([2]; water, 4 hours): 21.9 µg/mL
- Kinetic solubility (concentration of Compound I in saturated solution) ([2]; water, 8 hours): 34.1 µg/mL
- Kinetic solubility (concentration of Compound I in saturated solution) ([2]; water, 24 hours): 25.7 µg/mL
- Crystalline form before and after the formulation process (XRPD) [3]: remains stable
- Chemical purity during storage ([4]; 25° C./60% RH): above 99.5%
- Time the drug substance kept stable (crystalline state unchanged) ([4]; 25° C./60% RH): at least three months
- Crystalline form (XRPD) after storage ([4]; 25° C./60% RH, open, 3 months): Form CSI
- Purity after storage ([4]; 25° C./60% RH, open, 3 months): 99.68%
- Crystalline form (XRPD) after storage [4, 9]: Form CSI
- Purity after storage [4, 9]: 99.65%
- Time the drug substance kept stable (crystalline state unchanged) ([4]; 40° C./75% RH): at least three months
- Chemical purity during storage ([4]; 40° C./75% RH and 60° C./75% RH): above 99.5%
- Crystalline form (XRPD) after storage ([4]; 40° C./75% RH, open, 3 months): Form CSI
- Purity after storage ([4]; 40° C./75% RH, open, 3 months): 99.68%
- Crystalline form (XRPD) after storage [4, 10]: Form CSI
- Purity after storage [4, 10]: 99.66%
- Time the drug substance kept stable (crystalline state unchanged) ([4]; 60° C./75% RH): at least one month
- Crystalline form (XRPD) after storage ([4]; 60° C./75% RH, open, 1 month): Form CSI
- Purity after storage ([4]; 60° C./75% RH, open, 1 month): 99.63%
- Crystalline form (XRPD) after storage ([4]; 60° C./75% RH, sealed, 1 month): Form CSI
- Purity after storage ([4]; 60° C./75% RH, sealed, 1 month): 99.68%
- Crystalline form (XRPD) ([4]; Initial): Form CSI
- Purity ([4]; Initial): 99.71%
- Tensile strength ([5]; T=2H/πDL*9.8): 1.22 MPa
- Hardness ([5]; φ6 mm round tooling, after 24 h): 2.47 kgf
- Crystalline form after tableting (XRPD) ([6]; pressure 10 KN): Form CSI
- Crystalline form after tableting (XRPD) ([6]; pressure 15 KN): Form CSI
- Weight gain under 80% RH ([7]; DVS, 25° C.): 0.12%
- Hygroscopicity class ([7]; weight gain under 80% RH): non-hygroscopic or almost non-hygroscopic; also recorded: non hygroscopic or almost non-hygroscopic
- Crystalline form and crystallinity after grinding (XRPD) [8]: remain unchanged after grinding
